Assay [1] has as its target T1, von Hippel-Lindau disease tumor suppressor/Interleukin-1 receptor-associated kinase 1 (Homo sapiens, UniProt P51617+P40337). Kind of assay: Protac activity at IRAK1/VHL E3 ligase in HEK293T cells assessed as induction of IRAK1 degradation measured after 24 hrs by Western blot analysis. The format is cell-based. In general terms: Immunoblotting shows a protein as a band on a membrane.
Target sequence in this assay (P51617 whole entry): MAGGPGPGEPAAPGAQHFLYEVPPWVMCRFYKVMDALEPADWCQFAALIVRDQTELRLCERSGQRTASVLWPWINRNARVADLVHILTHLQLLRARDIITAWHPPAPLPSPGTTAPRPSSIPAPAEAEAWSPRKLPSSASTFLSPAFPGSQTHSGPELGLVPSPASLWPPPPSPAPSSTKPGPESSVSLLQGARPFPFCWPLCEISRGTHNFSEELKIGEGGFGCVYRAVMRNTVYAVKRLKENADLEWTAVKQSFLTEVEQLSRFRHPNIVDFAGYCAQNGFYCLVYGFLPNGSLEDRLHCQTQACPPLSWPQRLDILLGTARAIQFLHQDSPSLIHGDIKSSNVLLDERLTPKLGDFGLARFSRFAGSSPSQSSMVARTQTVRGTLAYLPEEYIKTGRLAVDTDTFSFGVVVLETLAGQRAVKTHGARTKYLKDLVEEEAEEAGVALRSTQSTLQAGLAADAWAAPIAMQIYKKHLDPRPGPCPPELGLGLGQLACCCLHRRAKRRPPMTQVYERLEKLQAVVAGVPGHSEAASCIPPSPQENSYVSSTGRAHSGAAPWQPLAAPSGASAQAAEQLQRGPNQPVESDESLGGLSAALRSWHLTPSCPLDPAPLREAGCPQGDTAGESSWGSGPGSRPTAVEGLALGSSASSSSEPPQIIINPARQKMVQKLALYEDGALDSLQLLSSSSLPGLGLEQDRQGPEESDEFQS
Target sequence in this assay (P40337 whole entry): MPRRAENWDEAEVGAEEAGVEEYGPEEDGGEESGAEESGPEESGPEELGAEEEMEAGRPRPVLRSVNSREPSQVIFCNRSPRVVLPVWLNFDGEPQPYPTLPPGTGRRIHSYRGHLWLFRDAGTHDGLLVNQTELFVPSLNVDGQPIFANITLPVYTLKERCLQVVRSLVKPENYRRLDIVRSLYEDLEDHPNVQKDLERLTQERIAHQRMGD

For assay [2], the target named is Interleukin-1 receptor-associated kinase 1 (Homo sapiens, UniProt P51617). Description: Inhibition of truncated human N-terminal GST-fusion tagged IRAK1 (194 to 712 residues) expressed in baculovirus expression system using FAM-labelled peptide as substrate preincubated for 10 mins followed by substrate addition and further incubated for 1 hr in presence of ATP at Km concentration by caliper mobility shift assay.
Interleukin-1 receptor-associated kinase 1, sequence (P51617 whole entry, the tested form may be a part): as the sequence (P51617 whole entry) above

Assay [3] addresses T1, von Hippel-Lindau disease tumor suppressor/Interleukin-1 receptor-associated kinase 1. Kind of assay: Protac activity at IRAK1/VHL E3 ligase in HEK293T cells assessed as induction of IRAK1 degradation at 10 uM measured after 24 hrs by Western blot analysis relative to control. Type of assay: cell-based.
Target sequence in this assay (P40337 whole entry, looked up): as the sequence (P40337 whole entry) above
Target sequence in this assay (P51617 whole entry, looked up): as the sequence (P51617 whole entry) above
Assay [4] addresses T2, Mitogen-activated protein kinase kinase kinase 19 (Homo sapiens) (UniProt Q56UN5).
T2 sequence (whole entry): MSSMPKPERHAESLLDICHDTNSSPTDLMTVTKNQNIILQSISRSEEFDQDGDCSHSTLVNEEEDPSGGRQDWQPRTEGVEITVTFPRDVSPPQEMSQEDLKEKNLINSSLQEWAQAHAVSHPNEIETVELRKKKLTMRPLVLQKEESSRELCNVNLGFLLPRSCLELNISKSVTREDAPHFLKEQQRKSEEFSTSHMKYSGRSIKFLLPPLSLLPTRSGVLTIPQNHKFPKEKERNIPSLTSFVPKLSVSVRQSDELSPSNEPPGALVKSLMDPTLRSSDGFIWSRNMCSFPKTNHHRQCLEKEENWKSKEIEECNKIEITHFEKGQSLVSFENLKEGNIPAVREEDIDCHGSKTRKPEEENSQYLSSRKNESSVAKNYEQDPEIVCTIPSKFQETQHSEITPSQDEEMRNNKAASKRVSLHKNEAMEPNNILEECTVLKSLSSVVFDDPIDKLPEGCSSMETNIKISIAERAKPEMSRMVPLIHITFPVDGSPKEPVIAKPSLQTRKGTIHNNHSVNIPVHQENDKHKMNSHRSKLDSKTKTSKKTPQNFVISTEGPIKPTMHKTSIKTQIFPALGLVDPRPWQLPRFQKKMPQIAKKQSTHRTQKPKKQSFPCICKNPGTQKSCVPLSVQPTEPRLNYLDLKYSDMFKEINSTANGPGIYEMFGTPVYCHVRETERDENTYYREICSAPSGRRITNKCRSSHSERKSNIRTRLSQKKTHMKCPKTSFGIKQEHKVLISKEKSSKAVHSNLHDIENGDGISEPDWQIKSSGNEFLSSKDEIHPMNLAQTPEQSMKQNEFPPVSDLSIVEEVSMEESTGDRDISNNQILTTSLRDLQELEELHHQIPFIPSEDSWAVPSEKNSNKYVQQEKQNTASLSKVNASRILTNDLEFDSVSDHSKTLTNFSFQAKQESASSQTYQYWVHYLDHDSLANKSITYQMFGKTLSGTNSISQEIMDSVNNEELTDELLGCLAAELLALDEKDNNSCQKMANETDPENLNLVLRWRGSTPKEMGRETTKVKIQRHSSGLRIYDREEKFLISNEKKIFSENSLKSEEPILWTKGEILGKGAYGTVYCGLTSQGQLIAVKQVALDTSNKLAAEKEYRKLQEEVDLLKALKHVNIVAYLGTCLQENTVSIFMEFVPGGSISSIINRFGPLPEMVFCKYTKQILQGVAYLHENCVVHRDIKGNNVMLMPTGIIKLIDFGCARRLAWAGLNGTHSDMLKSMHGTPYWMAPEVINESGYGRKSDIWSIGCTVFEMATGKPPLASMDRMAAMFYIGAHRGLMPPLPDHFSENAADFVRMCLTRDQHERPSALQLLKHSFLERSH
Kind of assay: Inhibition of wild-type human partial length YSK4 (T1019 to H1328 residues) expressed in mammalian expression system at 1 uM by Kinomescan method.

For assay [5], the target named is T3, Cyclin-G-associated kinase (Homo sapiens) (UniProt O14976).
T3 sequence (whole entry): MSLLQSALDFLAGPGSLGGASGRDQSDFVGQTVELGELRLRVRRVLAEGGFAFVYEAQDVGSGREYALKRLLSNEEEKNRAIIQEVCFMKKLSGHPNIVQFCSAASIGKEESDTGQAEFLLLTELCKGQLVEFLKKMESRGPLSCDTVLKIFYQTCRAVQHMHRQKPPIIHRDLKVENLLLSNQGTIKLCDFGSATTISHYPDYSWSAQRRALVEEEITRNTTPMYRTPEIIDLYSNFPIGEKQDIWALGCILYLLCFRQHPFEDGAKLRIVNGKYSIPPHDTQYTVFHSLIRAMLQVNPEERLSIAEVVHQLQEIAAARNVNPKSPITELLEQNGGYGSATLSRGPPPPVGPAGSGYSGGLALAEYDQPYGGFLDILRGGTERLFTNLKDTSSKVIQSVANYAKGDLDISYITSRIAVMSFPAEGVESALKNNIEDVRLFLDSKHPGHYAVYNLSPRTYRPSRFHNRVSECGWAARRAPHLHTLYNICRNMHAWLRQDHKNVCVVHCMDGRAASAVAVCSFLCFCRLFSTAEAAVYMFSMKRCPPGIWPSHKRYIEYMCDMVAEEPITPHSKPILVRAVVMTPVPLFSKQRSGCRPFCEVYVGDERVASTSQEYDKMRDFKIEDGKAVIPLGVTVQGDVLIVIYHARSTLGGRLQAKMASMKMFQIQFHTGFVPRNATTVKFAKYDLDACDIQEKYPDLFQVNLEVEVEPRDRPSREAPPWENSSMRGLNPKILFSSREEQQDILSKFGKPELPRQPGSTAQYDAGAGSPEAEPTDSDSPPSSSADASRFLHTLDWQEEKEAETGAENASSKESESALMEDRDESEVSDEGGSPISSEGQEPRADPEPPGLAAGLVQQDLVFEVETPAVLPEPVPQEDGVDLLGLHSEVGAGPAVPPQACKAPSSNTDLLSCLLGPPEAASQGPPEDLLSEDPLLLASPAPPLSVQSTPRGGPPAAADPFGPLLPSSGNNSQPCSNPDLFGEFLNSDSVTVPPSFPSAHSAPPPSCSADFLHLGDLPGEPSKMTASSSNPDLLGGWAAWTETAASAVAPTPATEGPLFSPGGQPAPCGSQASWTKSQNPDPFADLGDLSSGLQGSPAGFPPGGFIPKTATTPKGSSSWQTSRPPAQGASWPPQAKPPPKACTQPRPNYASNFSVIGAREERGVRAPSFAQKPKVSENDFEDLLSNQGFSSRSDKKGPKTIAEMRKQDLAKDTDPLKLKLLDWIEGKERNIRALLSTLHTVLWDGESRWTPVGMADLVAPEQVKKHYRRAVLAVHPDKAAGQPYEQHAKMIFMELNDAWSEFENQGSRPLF
Kind of assay: Induction of GAK degradation in human Toledo cells assessed as decrease in protein abundance at 1 uM measured after 6 hrs by quantitative mass spectrometry. The format is cell-based.

These results are taken from ChEMBL document CHEMBL5029152, “Discovery of Highly Potent and Selective IRAK1 Degraders to Probe Scaffolding Functions of IRAK1 in ABC DLBCL” (J Med Chem, 2021).

In general, DC50 refers to the concentration giving 50% degradation. As a reminder, the IC50 is the concentration that inhibits the measured activity by half.

Calls of active or inactive are those of the source. No cut-off for these calls is given here.

On to `COc1cc(N2CCC(OCC(=O)N[C@H](C(=O)N3C[C@H](O)C[C@H]3C(=O)N[C@@H](C)c3ccc(-c4scnc4C)cc3)C(C)(C)C)CC2)ccc1NC(=O)c1cccc(-c2ccn[nH]2)n1`, for which the DC50 in assay [1] was 3.3 nM. Moreover, the IC50 in assay [2] worked out at 72 nM. Also, the %max in assay [3] is 96%. Also, the inhibition entry in assay [4] is “Active”. Also, in assay [5], the outcome was Active.
